Each structure is given as a SMILES string. Read-outs that look alike come from different tables or passages of the source.

This note sets out measurements from patent US4390547A, “2,2-Dimethyl-3-(substituted ethyl)cyclopropane carboxylate pesticidal compositions and methods” (priority 1981, dated 1983).

The test system of data set [1] is guppies. The experiment in a line: Fish toxicity test (Test Example 4). It is filed as in vivo. Conditions: concentration killing 50% of female guppies during 48 hours, 20° C.; [Mixture] = cis/trans 50/50. How it is done:
The mixture was stirred well to prepare a test water. Ten female guppies from 3 to 4 months of age were released into the test water and maintained at 20° C. The concentration of the test compound at which 50% of the guppies were killed during the ensuring 48 hours was determined. [This concentration is referred to as TLm (medium tolerance limit, ppm)].
A rank corresponds to TLm of not less than 10 ppm.
B rank corresponds to TLm of 0.5-10 ppm.
C rank corresponds to TLm of not more than 0.5 ppm.

Data set [2] has as its system houseflies (Musca domestica). Put plainly: Mortality test against houseflies by the settling mist method (Utility Examples 2 and 3). It is filed as in vivo. Conditions: cis/trans 50/50, 24 hours. The method, then:
0.2 part of each of Compounds (1) to (38) was prepared and 0.8 part of piperonyl butoxide was added to each of them. To this mixture was added a sufficient amount of kerosene to make 100 parts, followed by stirring. By this procedure there was obtained an oil preparation of each Compound.
To 0.1 part of each of Compounds (1) to (38) was added 0.08 part of permethrin, followed by the addition of a sufficient amount of kerosene to make 100 parts. The mixture was stirred to obtain an oil preparation of each compound.
By the settling mist method, a mortality test against houseflies, (Musca domestica) was carried out using the oil preparations obtained according to Formulation Example 1 from Compounds (1), (5), (7), (9), (11) and (15) [Each compound is a mixture of cis- and trans-isomer in a ratio 50/50]. After 24 hours, the flies were examined for deaths. The mortality (%) was not less than 90% for each of Compounds (1), (5), (7), (9), (11) and (15).
By the settling mist method, a mortality test against houseflies was carried out using the oil preparations obtained in Formulation Example 3 from Compounds (1), (5), (7), (9), (11), (12), (15), (17) and (28) [Each compound is a mixture of cis- and trans-isomer in a ratio 50/50]. After 24 hours, the flies were examined for deaths. The mortality (%) was not less than 90% for each of Compounds (1), (5), (7), (9), (11), (12), (15), (17) and (28).

Data set [3] in a line: Light stability test (Test Example 3). It is filed as physicochemical. The note with it: glass plate, uv light. The method, then:
Into 2.0 ml of acetone were dissolved 80 mg of each test compound. A 5 μl portion of the solution was taken and spread on a glass plate (Micro Standard Cover Glass, 18 m/m No. 1, 200 pcs, Matsunami Glass Ind., Ltd.) and the acetone was evaporated. The specimen was exposed to ultraviolet light from a fluorescent lamp (Tokyo Shibaura Electric Co., Ltd., FL20BL, glow-type, 100 V, 24.5 W, wavelength=3600 A) which was fixed just above the specimen at a distance of 11 cm at a temperature of 31°-35° C. for a predetermined exposure time. The test liquid was washed away with 1.0 ml of methanol containing 0.04% of dioctyl phthalate as an internal reference and high-speed liquid chromatography was carried out on the washings to determine the residual amount of the test compound.

Data set [4] has as its system green rice leafhoppers. Put plainly: Mortality of green rice leafhoppers on sprayed rice seedlings (Utility Example 1). The note with it: green rice leafhopper, in vivo, 24 h. How it is done:
To 30 parts of each of Compounds (1) to (38) were added 50 parts of xylene and 20 parts of Sorpol SM-200 (a surfactant, trademark of Toho Chemical Co., Ltd.). The mixture was stirred well and dissolved to obtain a 30% emulsifiable concentrate.
The emulsifiable concentrate prepared from Compounds (7), (11), (12), (15), (17), (21) and (22) [Each compound is a mixture of cis- and trans-isomer in a ratio of 50/50] in Formulation Example 5 were each diluted 300-fold with water. Then, each of the dilutions was sprayed over rice seedlings 25 days after sowing at the rate of 10 ml/pot. The pot was covered with a wire net and 15 green rice leafhoppers were released under the net. After 24 hours, the leafhoppers were examined for deaths. The mortality (%) was not less than 90% for each of Compounds (7), (11), (12), (15), (17), (21) and (22).

Data set [5] relates to housefly (Musca domestica). Put plainly: Mortality test against houseflies by topical application (Test Example 1). Format: in vivo. The note with it: 24 h. The method, then: Each test compound was accurately weighed and a 1% solution and an 0.1% solution of the sample in acetone were prepared. A 1 μl portion of either of the above solutions was micropipetted onto the thoracic dorsal part of each female adult housefly (Musca domestica) under ether anaesthesia and the fly was released in a high-walled dish together with feed. The dish was covered with a metal-wire net and maintained at 25° C. After 24 hours, the test flies were inspected for deaths and the mortality (%) was calculated. Thirty test flies were used per concentration group.

The mark [6] stands for this setting: oil preparation of Formulation Example 1 (0.2 part compound + 0.8 part piperonyl butoxide).
Setting [7] is: oil preparation of Formulation Example 3 (0.1 part compound + 0.08 part permethrin).
The mark [8] stands for this setting: exposure time 3.5 hours, ultraviolet light 3600 A, 31°-35° C., [Mixture] = cis/trans 50/50, read-out: Residue (%).
[9] abbreviates: exposure time 3 days, ultraviolet light 3600 A, 31°-35° C., [Mixture] = cis/trans 50/50, read-out: Residue (%).

`CC1(C)C(C=C(Cl)Cl)C1C(=O)OCc1cccc(Oc2ccccc2)c1` (mixture of isomers) [Permethrin, 3-phenoxybenzyl(+)-cis,trans-2,2-dimethyl-3-(2,2-dichlorovinyl)cyclopropanecarboxylate, reference compound]: the “TLm (medium tolerance limit)” value in data set [1] is listed as “C (C rank corresponds to TLm of not more than 0.5 ppm.)”.
On the same count and under the same terms, then `CC1(C)[C@H](C(=O)OC(C(N)=S)c2cccc(Oc3ccccc3)c2)[C@@H]1CC(Cl)(Cl)Cl` (stereo partly drawn) [(27) [Cis-isomer], 3-Phenoxy-α-thiocarbamoylbenzyl 2,2-dimethyl-3-(2,2,2-trichloroethyl)cyclopropanecarboxylate], with “A (A rank corresponds to TLm of not less than 10 ppm.)”.
With `CC1(C)C(CC(Cl)(Cl)Cl)C1C(=O)OCc1cccc(Oc2ccccc2)c1` (stereo not shown) [(1), 3-Phenoxybenzyl 2,2-dimethyl-3-(2,2,2-trichloroethyl)cyclopropanecarboxylate], the “mortality (%)” value in data set [2] (setting [6]) and in data set [2] (setting [7]) was “not less than 90%” each time.
In data set [3], `CC1(C)C(CC(Cl)(Cl)Cl)C1C(=O)OCN1C(=O)C2=C(CCCC2)C1=O` (stereo not shown) [(37) [Mixture], 3,4,5,6-Tetrahydrophthalimidomethyl 2,2-dimethyl-3-(2,2,2-trichloroethyl)cyclopropanecarboxylate] returned a remaining at 3.5 h of 16% and a remaining at 72 h of 0%.
On to `C#CC(OC(=O)C1C(CC(Br)(Br)Br)C1(C)C)c1cccc(Oc2ccccc2)c1` (stereo not drawn) [Compound (12), 3-Phenoxy-α-ethylnylbenzyl 2,2-dimethyl-3-(2,2,2-tribromoethyl)cyclopropanecarboxylate], for which the “mortality (%)” value in data set [4] is on record as “not less than 90%”.
`CC1(C)C(CC(Cl)(Cl)Cl)C1C(=O)OCc1coc(Cc2ccccc2)c1` (stereo not shown) [(28), 5-Benzyl-3-furylmethyl 2,2-dimethyl-3-(2,2,2-trichloroethyl)cyclopropanecarboxylate]: the “mortality (%)” value in data set [2] (setting [7]) is reported as “not less than 90%”.
In data set [3], `C=CCC1=C(C)C(OC(=O)C2C(CC(Cl)(Cl)Cl)C2(C)C)CC1=O` (stereo not shown) [(38) [Mixture], Allethronyl 2,2-dimethyl-3-(2,2,2-trichloroethyl)cyclopropanecarboxylate] registered a remaining at 3.5 h of 21% and a remaining at 72 h of 0%.
For the compound `CC(Cl)(Cl)CC1C(C(=O)OC(C#N)c2cccc(Oc3ccccc3)c2)C1(C)C` (stereo not drawn) [Compound (9), 3-Phenoxy-α-cyanobenzyl 2,2-dimethyl-3-(2,2-dichloropropyl)cyclopropanecarboxylate], the “mortality (%)” value in data set [2] (setting [6]) and in data set [2] (setting [7]) was “not less than 90%” throughout.
In data set [3], `CC1(C)[C@H](C(=O)OCc2cccc(Oc3ccccc3)c2)[C@@H]1CC(Cl)(Cl)Cl` (relative stereo) [(1) [Cis-isomer], 3-Phenoxybenzyl 2,2-dimethyl-3-(2,2,2-trichloroethyl)cyclopropanecarboxylate] showed a remaining at 3.5 h of 97%, a remaining at 72 h of 91% and a remaining at 120 h of 85%.
Take `C#CC(OC(=O)C1C(CC(Cl)(Cl)Cl)C1(C)C)c1cccc(Oc2ccc(Cl)cc2)c1` (stereo not drawn) [(21) [Mixture], 3-(4-Chlorophenoxy)-α-ethynylbenzyl 2,2-dimethyl-3-(2,2,2-trichloroethyl)cyclopropanecarboxylate]: in data set [3], the remaining at 3.5 h was 100%, the remaining at 72 h turned out to be 78% and the remaining at 120 h was determined as 56%.
In the case of `C=CCC1=C(C)C(OC(=O)C2C(C=C(C)C)C2(C)C)CC1=O` (stereo not shown) [Allethrin, allethrin, reference compound], the remaining at 3.5 h in data set [3] (setting [8]) amounted to 14%. The remaining at 72 h in data set [3] (setting [9]) stood at 0%.
The term mortality denotes the share of the test organisms that died. Read a low mortality as more survivors. In data set [5], `CC1(C)[C@H](CC(Cl)(Cl)Cl)[C@H]1C(=O)OC(C#N)c1cccc(Oc2ccccc2)c1` (relative stereo) [(7) [Trans-isomer], 3-Phenoxy-α-cyanobenzyl 2,2-dimethyl-3-(2,2,2-trichloroethyl)cyclopropanecarboxylate] registered a mortality at 1 µg/fly of 96.7% and a mortality at 10 µg/fly of 100%.
`CC1(C)C(CC(Cl)(Cl)Cl)C1C(=O)OC(C#N)c1cccc(OC=C(Cl)Cl)c1` (stereo not drawn) [(34) [Mixture], 3-(2,2-dichlorovinyloxy)-α-cyanobenzyl 2,2-dimethyl-3-(2,2,2-trichloroethyl)cyclopropanecarboxylate]: the remaining at 3.5 h in data set [3] (setting [8]) was found to be 100%. Also, the remaining at 72 h in data set [3] (setting [9]) stood at 88%. In addition, the remaining at 120 h in data set [3] (exposure time 5 days, ultraviolet light 3600 A, 31°-35° C., [Mixture] = cis/trans 50/50, read-out: Residue (%)) was found to be 44%.
Consider `CC1(C)C(CC(Cl)(Cl)Cl)C1C(=O)OC(C#N)c1cccc(Oc2ccc(Cl)cc2)c1` (stereo not drawn) [(15) [Mixture], 3-(4-Chlorophenoxy)-α-cyanobenzyl 2,2-dimethyl-3-(2,2,2-trichloroethyl)cyclopropanecarboxylate], for which, in data set [3], the remaining at 3.5 h amounted to 100%, the remaining at 72 h is 93% and the remaining at 120 h stood at 96%.
On to `CC(Cl)(Cl)CC1C(C(=O)OCc2cccc(Oc3ccccc3)c2)C1(C)C` (stereo not shown) [Compound (5), 3-Phenoxybenzyl 2,2-dimethyl-3-(2,2-dichloropropyl)cyclopropanecarboxylate], for which the “mortality (%)” value in data set [2] (setting [6]) and in data set [2] (setting [7]) was “not less than 90%” throughout.
In the case of `C#CC(OC(=O)C1C(CC(Cl)(Cl)Cl)C1(C)C)c1cccc(Oc2ccccc2)c1` (stereo not drawn) [(11) [Mixture], 3-Phenoxy-α-ethynylbenzyl 2,2-dimethyl-3-(2,2,2-trichloroethyl)cyclopropanecarboxylate], in data set [3], the remaining at 3.5 h was found to be 100%, the remaining at 72 h came out at 71% and the remaining at 120 h stood at 65%.
In data set [3], `CC1(C)C(CC(Cl)(Cl)Cl)C1C(=O)OC(C#N)c1cccc(Oc2ccccc2)c1` (stereo not drawn) [(7) [Mixture], 3-Phenoxy-α-cyanobenzyl 2,2-dimethyl-3-(2,2,2-trichloroethyl)cyclopropanecarboxylate] had a remaining at 3.5 h of 100%, a remaining at 72 h of 84% and a remaining at 120 h of 75%.
As to `CC1(C)C(CC(Cl)(Cl)Cl)C1C(=O)OCc1coc(Cc2ccccc2)c1` (stereo not shown) [(28) [Mixture], 5-Benzyl-3-furylmethyl 2,2-dimethyl-3-(2,2,2-trichloroethyl)cyclopropanecarboxylate], in data set [3], the remaining at 3.5 h worked out at 5% and the remaining at 72 h stood at 0%.
`C#CC(OC(=O)C1C(CC(Cl)(Cl)Cl)C1(C)C)c1cccc(Oc2ccc(Cl)cc2)c1` (stereo not drawn) [(21), 3-(4-Chlorophenoxy)-α-ethynylbenzyl 2,2-dimethyl-3-(2,2,2-trichloroethyl)cyclopropanecarboxylate]: in data set [4], the “mortality (%)” value was “not less than 90%”.
As to `CC1(C)C(CC(Cl)(Cl)Cl)C1C(=O)OC(C#N)c1cccc(Oc2ccc(Br)cc2)c1` (stereo not drawn) [(17), 3-(4-Bromophenoxy)-α-cyanobenzyl 2,2-dimethyl-3-(2,2,2-trichloroethyl)cyclopropanecarboxylate], in data set [2] (setting [7]), the “mortality (%)” value is listed as “not less than 90%”.
